Assay results as given in paper PMC11563871, “The human ATAD5 has evolved unique structural elements to function exclusively as a PCNA unloader” (Nature Structural & Molecular Biology, 2024).

Columns and labels:
ATAD5-RFC = system: T1, ATAD5-RFC; assay: malachite green phosphate ATPase assay; assay type: biochemical, Homo sapiens; settings: 1 mM ATP, 0.25 μM ATAD5-RFC, 2 mM MgCl2, pH 7.6, room temperature; alone or with PCNA and/or DNA
T1 construct: N-terminally truncated ATAD5 (812-end of 1844), N-terminal 3xFLAG and C-terminal 6xHis, heteropentamer with RFC2-RFC5, insect cells (Sf9/Hi5)
T1 sequence (Q96QE3 812-1844): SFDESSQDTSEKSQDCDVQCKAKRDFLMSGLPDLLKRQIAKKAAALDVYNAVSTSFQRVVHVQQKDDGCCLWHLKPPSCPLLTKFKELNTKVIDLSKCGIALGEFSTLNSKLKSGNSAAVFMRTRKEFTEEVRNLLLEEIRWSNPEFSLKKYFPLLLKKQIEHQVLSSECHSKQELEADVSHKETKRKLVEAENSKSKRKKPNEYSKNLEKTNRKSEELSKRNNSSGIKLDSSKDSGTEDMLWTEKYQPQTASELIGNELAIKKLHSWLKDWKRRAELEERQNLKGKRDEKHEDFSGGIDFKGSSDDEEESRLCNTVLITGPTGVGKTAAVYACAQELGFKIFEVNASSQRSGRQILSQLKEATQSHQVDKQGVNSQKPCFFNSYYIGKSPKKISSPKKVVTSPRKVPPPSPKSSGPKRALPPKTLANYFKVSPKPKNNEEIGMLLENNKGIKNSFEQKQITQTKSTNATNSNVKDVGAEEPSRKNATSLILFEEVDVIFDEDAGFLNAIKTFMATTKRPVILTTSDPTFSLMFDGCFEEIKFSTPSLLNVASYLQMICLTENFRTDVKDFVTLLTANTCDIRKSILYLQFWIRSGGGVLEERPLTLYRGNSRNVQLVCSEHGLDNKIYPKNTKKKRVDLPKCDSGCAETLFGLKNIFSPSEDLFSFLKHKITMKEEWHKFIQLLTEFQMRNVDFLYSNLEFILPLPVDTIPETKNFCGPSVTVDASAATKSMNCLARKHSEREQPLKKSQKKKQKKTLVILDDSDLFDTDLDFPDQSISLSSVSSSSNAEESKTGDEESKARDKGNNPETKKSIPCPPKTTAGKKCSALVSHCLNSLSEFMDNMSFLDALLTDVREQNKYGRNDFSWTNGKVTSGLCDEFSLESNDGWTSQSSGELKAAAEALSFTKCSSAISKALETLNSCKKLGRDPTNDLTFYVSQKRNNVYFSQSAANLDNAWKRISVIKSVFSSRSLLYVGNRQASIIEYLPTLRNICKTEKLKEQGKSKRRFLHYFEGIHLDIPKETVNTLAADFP
T1 sequence (P35250 whole entry, further chain, the tested form may be a part): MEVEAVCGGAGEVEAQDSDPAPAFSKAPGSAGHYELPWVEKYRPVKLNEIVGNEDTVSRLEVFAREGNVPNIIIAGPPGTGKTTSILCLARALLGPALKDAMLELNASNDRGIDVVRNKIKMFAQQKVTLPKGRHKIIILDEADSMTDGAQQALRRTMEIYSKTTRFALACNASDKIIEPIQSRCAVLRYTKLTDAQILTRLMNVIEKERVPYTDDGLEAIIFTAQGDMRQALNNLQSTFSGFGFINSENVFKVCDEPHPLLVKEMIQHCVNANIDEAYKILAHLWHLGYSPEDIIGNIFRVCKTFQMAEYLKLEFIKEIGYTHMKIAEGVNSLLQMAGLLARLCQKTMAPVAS
T1 sequence (P40938 whole entry, further chain, the tested form may be a part): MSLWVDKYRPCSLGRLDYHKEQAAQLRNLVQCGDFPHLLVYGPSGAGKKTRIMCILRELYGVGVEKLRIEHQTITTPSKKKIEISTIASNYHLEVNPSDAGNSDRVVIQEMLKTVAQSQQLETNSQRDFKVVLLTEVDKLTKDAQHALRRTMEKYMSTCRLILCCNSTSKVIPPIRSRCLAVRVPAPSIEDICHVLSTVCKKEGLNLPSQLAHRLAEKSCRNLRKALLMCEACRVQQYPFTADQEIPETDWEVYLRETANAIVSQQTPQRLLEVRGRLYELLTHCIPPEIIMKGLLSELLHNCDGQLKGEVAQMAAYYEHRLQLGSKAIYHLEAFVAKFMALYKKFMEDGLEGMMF
T1 sequence (P35249 whole entry, further chain, the tested form may be a part): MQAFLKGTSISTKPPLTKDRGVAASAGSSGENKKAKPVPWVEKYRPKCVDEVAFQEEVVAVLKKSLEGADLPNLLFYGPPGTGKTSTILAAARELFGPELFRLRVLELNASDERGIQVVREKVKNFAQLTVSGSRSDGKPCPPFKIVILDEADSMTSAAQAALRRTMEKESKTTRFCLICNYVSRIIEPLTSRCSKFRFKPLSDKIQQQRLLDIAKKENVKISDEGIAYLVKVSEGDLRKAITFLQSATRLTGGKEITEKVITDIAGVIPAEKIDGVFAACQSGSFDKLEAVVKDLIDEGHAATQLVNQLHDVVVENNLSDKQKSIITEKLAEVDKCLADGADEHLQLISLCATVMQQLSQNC
T1 sequence (P40937 whole entry, further chain, the tested form may be a part): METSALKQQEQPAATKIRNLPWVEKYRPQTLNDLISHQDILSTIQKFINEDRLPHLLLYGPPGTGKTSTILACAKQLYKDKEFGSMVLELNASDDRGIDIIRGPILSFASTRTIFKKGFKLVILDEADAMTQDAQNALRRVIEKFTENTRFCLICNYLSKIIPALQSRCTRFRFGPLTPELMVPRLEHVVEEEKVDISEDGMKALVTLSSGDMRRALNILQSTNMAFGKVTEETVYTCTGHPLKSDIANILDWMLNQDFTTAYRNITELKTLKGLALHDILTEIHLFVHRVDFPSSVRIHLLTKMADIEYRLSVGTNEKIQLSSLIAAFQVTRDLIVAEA

[1] = system: T2, human ATAD5-RFC–PCNA complex; assay: cryo-EM structure; assay type: binding; settings: 0.5 mM ATPγS, Mg2+; bound at ATAD5, RFC2, RFC5 and (states 1 and 2) RFC4
T2 construct: N-terminally truncated ATAD5 (812-end of 1844), N-terminal 3xFLAG and C-terminal 6xHis, with RFC2-RFC5, insect cells (Sf9/Hi5); PCNA homotrimer from E. coli, His tag cut by thrombin; with Proliferating cell nuclear antigen
T2 sequence (Q96QE3 812-1844): as the sequence (Q96QE3 812-1844) above
T2 sequence (P35250 whole entry, further chain, the tested form may be a part): as the sequence (P35250 whole entry, further chain, the tested form may be a part) above
T2 sequence (P40938 whole entry, further chain, the tested form may be a part): as the sequence (P40938 whole entry, further chain, the tested form may be a part) above
T2 sequence (P35249 whole entry, further chain, the tested form may be a part): as the sequence (P35249 whole entry, further chain, the tested form may be a part) above
T2 sequence (P40937 whole entry, further chain, the tested form may be a part): as the sequence (P40937 whole entry, further chain, the tested form may be a part) above
T2 sequence (P12004 whole entry partner, the tested form may be a part): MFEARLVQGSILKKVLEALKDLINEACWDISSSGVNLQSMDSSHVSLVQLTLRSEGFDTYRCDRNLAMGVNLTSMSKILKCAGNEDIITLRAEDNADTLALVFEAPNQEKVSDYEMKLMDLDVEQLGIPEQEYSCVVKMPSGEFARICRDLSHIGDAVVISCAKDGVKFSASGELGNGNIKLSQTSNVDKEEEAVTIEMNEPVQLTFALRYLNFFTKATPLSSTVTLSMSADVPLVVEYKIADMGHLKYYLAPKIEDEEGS

Nc1ncnc2c1ncn2[C@@H]1O[C@H](COP(=O)(O)OP(=O)(O)OP(=O)(O)O)[C@@H](O)[C@H]1O [ATP]
ATP hydrolyzed/min (ATAD5-RFC): ATP hydrolyzed/min by ATAD5-RFC alone or with PCNA and/or DNA

Nc1ncnc2c1ncn2[C@@H]1O[C@H](COP(=O)(O)OP(=O)(O)OP(O)(O)=S)[C@@H](O)[C@H]1O [ATPγS]
cryo-EM structure [1]: four subunits (ATAD5, RFC2, RFC5 and RFC4, that is, subunits A–D) each bound an ATPγS
